# Assay results taken from article PMC6277767, “Broad and Region-Specific Impacts of the Synthetic Cannabinoid CP 55,940 in Adolescent and Adult Female Mouse Brains” (Frontiers in Molecular Neuroscience, 2018).
# Test system: CD1 female mouse brain lipidome
# Test: Brain-region lipid levels (HPLC/MS/MS lipidomics) 2 h after single i.p. 3 mg/kg CP 55,940 vs vehicle
# Format: in vivo
# Design: N-arachidonoyl phenylalanine level, Mean / N-stearoyl tryptophan level, Mean / N-stearoyl proline level, Mean / N-stearoyl leucine level, Mean / N-stearoyl phenylalanine level, Mean / N-stearoyl serine level, Mean / N-stearoyl methionine level, Mean: unit: moles per gram
# Settings: hypothalamus
# Protocol: The Bloomington Institutional Animal Care and Use Committee of Indiana University reviewed and approved the animal procedures. Female mice from the CD1 strain were utilized to match our study examining THC’s effects on the brain lipidome ([Leishman et al., 2018]). Mice were given a single i.p. injection of either 3 mg/kg CP or 1:1:18 cremophor:ethanol:saline vehicle (please refer to the section “3 mg/kg CP Is Relevant for Synthetic Cannabinoid Abuse and Has Stronger Effects on the Female Mouse Brain Lipidome During Adolescence” for a justification of dose and use of female mice). Three different age groups were given injections: PND 35 and PND 50 adolescents, and adult mice (PND 113). At least eight mice in each age group received CP and at least eight received vehicle. Matching the THC study time course ([Leishman et al., 2018]), mice were sacrificed via rapid decapitation 2 h after injection. Brains were immediately removed and flash-frozen in liquid nitrogen, and then stored at -80°C until dissections were performed. Brains were dissected on an ice-cold dissection plate into the following regions: STR, HIPP, CER, THAL, CTX, HYP, MID, and STEM. These abbreviations for these brain areas will be used exclusively when discussing the results generated by these specific dissections. Each dissected area was immediately placed in liquid nitrogen and then stored at -80°C until used for lipid extraction.
# Tissue extracts were performed as previously described ([Bradshaw et al., 2006]; [Stuart et al., 2013]; [Raboune et al., 2014]; [Leishman et al., 2016a],[b], [2017], [2018]). First, samples were shock frozen in liquid nitrogen, weighed, and transferred to a centrifuge tube. The mass of the largest sample was multiplied by 50 to determine how many milliliters of HPLC-grade methanol (Fisher, Fair Lawn, NJ, United States) to add. Then, samples were spiked with 500 pmol deuterium-labeled NAGly (d8NAGly; Cayman Chemical, Ann Arbor, MI, United States). Samples were placed on ice in darkness for 2 h then individually homogenized and centrifuged at 19,000 × g for 20 min at 20°C. Supernatants were diluted with HPLC water (purified in house) to make a solution of 75% water, 25% supernatant. Lipids were partially purified on C18 solid phase extraction columns (Agilent, Palo Alto, CA, United States). A series of four elutions with 1.5 mL of 60%, 75%, 85%, and 100% methanol were collected ([Stuart et al., 2013]; [Leishman et al., 2016a],[b], [2018]).
# As previously described ([Bradshaw et al., 2006]; [Tan et al., 2006]; [Smoum et al., 2010]; [Stuart et al., 2013]; [Tortoriello et al., 2013]; [Raboune et al., 2014]; [Leishman et al., 2016a],[b], [2017], [2018]), samples were analyzed using an Applied Biosystems API 3000 triple quadrupole mass spectrometer with electrospray ionization (Foster City, CA, United States). Using an Agilent XDB-C18 reversed phase analytical column and optimized mobile phase gradients, 20 μL from each elution were chromatographed. Two Shimadzu 10ADvp pumps (Columbia, MD, United States) provided the pressure for gradient elution. Mobile phase A: 20% methanol, 80% water (v/v) and 1 mM ammonium acetate (Sigma, St. Louis, MO, United States). Mobile phase B: 100% methanol, 1 mM ammonium acetate. Every method run began with 0% mobile phase B, reached 100% mobile phase B flowing at 0.2 mL/min, and gradually returned to 0% mobile phase B.
# This screening library will be referred to as the lipidome when discussing data from this study. HPLC/MS/MS data were analyzed using Analyst software (Applied Biosystems) ([Bradshaw et al., 2006]; [Tan et al., 2006]; [Stuart et al., 2013]; [Tortoriello et al., 2013]; [Raboune et al., 2014]; [Leishman et al., 2016a],[b], [2017], [2018]). Chromatograms (Supplementary Figure 3) were generated by determining the retention time of analytes from the analytical column with a [M-1] or [M+1] parent peak and a fragmentation peak corresponding to the programmed values. […]
# [1] = PND 50 female mice, 3mg/kg CP 55,940
# [2] = PND 35 adolescent female mice, 3 mg/kg
smiles,measurement,setting,value
"CCCCCCC(C)(C)c1ccc([C@@H]2C[C@H](O)CC[C@H]2CCCO)c(O)c1 [CP 55,940]","N-docosahexaenoyl methionine level, Mean",[1],BDL
same,"N-docosahexaenoyl phenylalanine level, Mean",[1],PISSR
same,"N-docosahexaenoyl proline level, Mean",[1],BDL
same,"N-docosahexaenoyl serine level, Mean",[1],PISSR
same,"N-docosahexaenoyl tryptophan level, Mean",[1],BDL
same,"N-docosahexaenoyl tyrosine level, Mean",[1],BDL
same,"N-docosahexaenoyl valine level, Mean",[1],BDL
same,"N-linoleoyl GABA level, Mean",[1],PISSR
same,"N-linoleoyl alanine level, Mean",[1],3.81E-13
same,"N-linoleoyl ethanolamine level, Mean",[1],3.47E-11
same,"N-linoleoyl glycine level, Mean",[1],1.12E-13
same,"N-linoleoyl leucine level, Mean",[1],PISSR
same,"N-linoleoyl methionine level, Mean",[1],BDL
same,"N-linoleoyl phenylalanine level, Mean",[1],PISSR
same,"N-linoleoyl proline level, Mean",[1],BDL
same,"N-linoleoyl serine level, Mean",[1],1.7E-10
same,"N-linoleoyl tryptophan level, Mean",[1],BDL
same,"N-linoleoyl tyrosine level, Mean",[1],BDL
same,"N-linoleoyl valine level, Mean",[1],BDL
same,"N-nervonoyl valine level, Mean",[1],BDL
same,"N-oleoyl GABA level, Mean",[1],1.97E-12
same,"N-oleoyl alanine level, Mean",[1],2.61E-12
same,"N-oleoyl dopamine level, Mean",[1],BDL
same,"N-oleoyl ethanolamine level, Mean",[1],8.36E-11
same,"N-oleoyl glycine level, Mean",[1],5.38E-13
same,"N-oleoyl leucine level, Mean",[1],3.54E-13
same,"N-oleoyl methionine level, Mean",[1],PISSR
same,"N-oleoyl phenylalanine level, Mean",[1],6.88E-13
same,"N-oleoyl proline level, Mean",[1],BDL
same,"N-oleoyl serine level, Mean",[1],3.07E-10
same,"N-oleoyl tryptophan level, Mean",[1],BDL
same,"N-oleoyl tyrosine level, Mean",[1],1.89E-13
same,"N-oleoyl valine level, Mean",[1],PISSR
same,"N-palmitoyl GABA level, Mean",[1],6.6E-12
same,"N-palmitoyl alanine level, Mean",[1],6.9E-12
same,"N-palmitoyl ethanolamine level, Mean",[1],6.24E-11
same,"N-palmitoyl glycine level, Mean",[1],3.58E-12
same,"N-palmitoyl leucine level, Mean",[1],1.26E-12
same,"N-palmitoyl methionine level, Mean",[1],9.4E-13
same,"N-palmitoyl phenylalanine level, Mean",[1],1.3E-12
same,"N-palmitoyl proline level, Mean",[1],BDL
same,"N-palmitoyl serine level, Mean",[1],3.09E-11
same,"N-palmitoyl tryptophan level, Mean",[1],BDL
same,"N-palmitoyl tyrosine level, Mean",[1],4.12E-13
same,"N-palmitoyl valine level, Mean",[1],2.32E-13
same,"N-stearoyl GABA level, Mean",[1],7.69E-12
same,"N-stearoyl alanine level, Mean",[1],9.94E-13
same,"N-stearoyl ethanolamine level, Mean",[1],3.67E-11
same,"N-stearoyl glycine level, Mean",[1],5.58E-13
same,"N-stearoyl leucine level, Mean",[1],9.96E-13
same,"N-stearoyl methionine level, Mean",[1],5.57E-13
same,"N-stearoyl phenylalanine level, Mean",[1],1.28E-12
same,"N-stearoyl proline level, Mean",[1],BDL
same,"N-stearoyl serine level, Mean",[1],5.5E-11
same,"N-stearoyl tryptophan level, Mean",[1],BDL
same,"N-stearoyl tyrosine level, Mean",[1],1.01E-13
same,"Oleic acid level, Mean",[1],2.82E-10
same,"PGE2 level, Mean",[1],7.14E-11
same,"PhosphoLEA level, Mean",[1],1.12E-11
same,"THC level, Mean",[1],BDL
same,"2-arachidonoyl glycerol level, Mean",[2],6.64E-10
same,"2-linoleoyl glycerol level, Mean",[2],5.43E-11
same,"2-oleoyl glycerol level, Mean",[2],7.45E-10
same,"2-palmitoyl glycerol level, Mean",[2],7.93E-10
same,"6-ketoPGF1α level, Mean",[2],1.71E-11
same,"Arachidonic acid level, Mean",[2],3.33E-09
same,"Linoleic acid level, Mean",[2],2.5E-10
same,"N- stearoyl valine level, Mean",[2],1.41E-12
same,"N-arachidonoyl GABA level, Mean",[2],3.93E-11
same,"N-arachidonoyl alanine level, Mean",[2],5.15E-12
same,"N-arachidonoyl ethanolamine level, Mean",[2],5.6E-12
same,"N-arachidonoyl glycine level, Mean",[2],5.39E-12
same,"N-arachidonoyl phenylalanine level, Mean",[2],7.34E-13
same,"N-arachidonoyl taurine level, Mean",[2],1.56E-11
same,"N-docosahexaenoyl GABA level, Mean",[2],5.25E-12
same,"N-docosahexaenoyl ethanolamine level, Mean",[2],1.68E-11
same,"N-docosahexaenoyl glycine level, Mean",[2],4.59E-13
same,"N-linoleoyl alanine level, Mean",[2],4.26E-12
same,"N-linoleoyl ethanolamine level, Mean",[2],1.7E-11
same,"N-linoleoyl glycine level, Mean",[2],3.45E-13
same,"N-linoleoyl serine level, Mean",[2],6.26E-11
same,"N-oleoyl GABA level, Mean",[2],2.02E-11
same,"N-oleoyl alanine level, Mean",[2],1.14E-11
same,"N-oleoyl ethanolamine level, Mean",[2],1.79E-10
same,"N-oleoyl glycine level, Mean",[2],3.5E-12
same,"N-oleoyl leucine level, Mean",[2],3.49E-13
same,"N-oleoyl phenylalanine level, Mean",[2],1.8E-12
same,"N-oleoyl serine level, Mean",[2],2.72E-10
same,"N-oleoyl valine level, Mean",[2],3.31E-13
same,"N-palmitoyl GABA level, Mean",[2],3.44E-11
same,"N-palmitoyl alanine level, Mean",[2],3.03E-11
same,"N-palmitoyl ethanolamine level, Mean",[2],4.49E-11
same,"N-palmitoyl glycine level, Mean",[2],1.16E-11
same,"N-palmitoyl leucine level, Mean",[2],2.12E-12
same,"N-palmitoyl methionine level, Mean",[2],5.5E-12
same,"N-palmitoyl phenylalanine level, Mean",[2],4.4E-12
same,"N-palmitoyl serine level, Mean",[2],1.07E-11
same,"N-palmitoyl tyrosine level, Mean",[2],1.52E-12
same,"N-palmitoyl valine level, Mean",[2],1.65E-12
same,"N-stearoyl GABA level, Mean",[2],3.84E-11
same,"N-stearoyl alanine level, Mean",[2],1.89E-11
same,"N-stearoyl ethanolamine level, Mean",[2],3.64E-11
same,"N-stearoyl glycine level, Mean",[2],8.37E-12
